Consider 14 compounds from EP0610943A1, “Pyridinium derivatives useful as PAF antagonists” (J. URIACH & CIA. S.A., priority 1993, dated 1994).

For assay [1], the system named is PAF-induced hypotension. Description: Inhibition of the hypotensive effect induced by PAF in normotensive rats. It counts as in vivo, Male Sprague Dawley rats. Particulars: i.v. through the femoral vein 3 min before PAF injection (0.5 mcg/kg, i.v.); anaesthetized rats. On the procedure: Inhibition of the hypotensive effect induced by PAF in normotensive rats.
Male Sprague Dawley rats (b.w. 180-220 g) anaesthetized with sodium pentobarbital (50 mg/kg, i.p. 1mL/100 g) were used. In order to measure the arterial pressure, a polyethylene catheter was introduced into the carotid artery. The arterial pressure was recorded with the help of a transducer coupled to a R611 Beckman polygraph. The test compounds were administered through the femoral vein 3 min before PAF injection (0.5 mcg/kg, i.v.). Control animals received only the vehicle. […]

In assay [2] the test system is Platelet aggregation induced by PAF. Description: Inhibition of platelet aggregation induced by PAF (Born nephelometric technique, platelet-rich plasma). The assay is classed as cell-based, male New Zealand rabbits. Particulars: rabbit platelet-rich plasma, platelet count 3x10⁵/mm³; PAF (C₁₈) 15 nM; read-out: IC₅₀. Here is the method:
Inhibition of platelet aggregation induced by PAF
Platelet-rich plasma (PRP) was prepared by centrifuging the blood at 250xg for 10 min at 4°C and then it was diluted with platelet-poor plasma (PPP) obtained by further centrifuging at 3000xg for 10 min. The platelet count was adjusted to 3x10⁵/mm³. […] The activities of the inhibitors were expressed as the IC₅₀ value, that is to say the concentration of the drug needed to inhibit platelet aggregation by 50%.

For assay [3], the system named is ear oedema induced by arachidonic acid. Description: Rodent ear oedema induced by arachidonic acid. It counts as in vivo, Swiss, male mice. Particulars: topical in acetone 30 min before irritant; 10% arachidonic acid, 2 mg/ear; read at 1 h; mouse ear. On the procedure:
(§1) Rodent ear oedema induced by application of several irritant agents
(§2) Groups of 8-10 Swiss, male mice, 6-8 weeks old, were used in the experiments. Animals had free access to food and water. Irritant dermatitis was elicited by painting both faces of the left ear of the mouse with 20 µL (10 µL each face) of the inflammatory agents. Concentrations (w/v) of the irritants were: 10% arachidonic acid and 0.01% TPA (12-O-tetradecanoylphorbol 13-acetate), both dissolved in acetone. Total applied doses were 2 and 0.002 mg/ear, respectively. Treatment was effected by application of a total of 20 µL of the test compound dissolved in acetone to both faces of the left ear of the mouse 30 min before the application of the irritant agent. Control animals received only the vehicle. At 1 h (arachidonic acid) and 6 h (TPA) after administration of the irritant, animals were killed by cervical dislocation. An 8 mm diameter punch biopsy was performed on each ear, the right (untreated) ear being the control for each animal. The swelling induced by the irritant was quantified as the percentage increase in the weight of the left ear biopsy over that of the right ear biopsy.

Assay [4] relates to ear oedema induced by TPA (12-O-tetradecanoylphorbol 13-acetate). Description: Rodent ear oedema induced by TPA. The note with it: topical in acetone 30 min before irritant; 0.01% TPA, 0.002 mg/ear; read at 6 h; mouse ear. It counts as in vivo, Swiss, male mice. Here is the method: as §1
as §2, with “This test was performed according to the method described by Young et al. (Pharmacological Methods in the Control of Inflammation., ed. Chang, J.Y. & Lewis, A.J. pp 215-231. New York: Alan R. Liss, 1989). Groups” for “Groups”, “biopsy. Percentage inhibition of oedema was calculated according to the following formula: [formula] Activity of the inhibitors was expressed as the ID₅₀ value, i.e. the amount of compound by weight of animal (dose) required to inhibit the increase in weight by 50%, with respect to control animals.” for “biopsy.”

Where only a bound is given, the exact number is not on record here.

As to “5-Bromo-3-[N-(2-ethoxycarbonylamino)ethyl-N-phenyl]carbamoyl-1-propylpyridinium chloride [Compound 2]”, the ID₅₀ in assay [1] came to 0.039 mg/kg. Further, the IC50 in assay [2] was found to be 4.2 nM.
Take “5-Bromo-3-[N-[2-(2-iodoethoxy)carbonylamino]ethyl-N-phenyl]carbamoyl-1-propylpyridinium chloride [Compound 4]”: in assay [2], the IC50 amounted to 16 nM.
Take “5-Bromo-3-[N-[2-(2-iodoethoxy)carbonylamino]ethyl-N-phenyl]carbamoyl₋1-propylpyridinium iodide [Compound 3]”: the “ID₅₀ Arachidonic acid” value in assay [3] is recorded as 0.3-1 mg/ear. Further, the IC50 in assay [2] was 10 nM. For the same compound, in assay [4], the “ID₅₀ TPA” value worked out at 0.76 mg/ear.
As to “5-Bromo-3-[N-[2-(4-fluorobenzyloxy)carbonylamino]ethyl-N-phenyl]carbamoyl-1-propylpyridinium iodide [Compound 9]”, the “ID₅₀ Arachidonic acid” value in assay [3] is given as “≈1 mg/ear”. Moreover, the ID₅₀ in assay [1] is listed as 0.079 mg/kg. In assay [2], the IC50 is 3.8 nM. Also, in assay [4], the “ID₅₀ TPA” value was 0.3-1 mg/ear.
For `CCC[n+]1cc(Br)cc(C(=O)N(CCNC(=O)OCC)c2ccccc2)c1.[I-]` [Compound 1, 5-Bromo-3-[N-(2₋ethoxycarbonylamino)ethyl-N-phenyl]carbamoyl-1-propylpyridinium iodide] the same measures were 0.31 mg/ear, 0.046 mg/kg, 18 nM and 0.31 mg/ear.
For the compound `CCC[n+]1cc(Br)cc(C(=O)N(CCN2CCOC2=O)c2ccccc2)c1.[I-]` [Compound 5, 5-Bromo-3-[N-[2-(2-oxo-1,3-oxazolidin-3-yl)ethyl-N-phenyl]carbamoyl]-1-propylpyridinium iodide], the “ID₅₀ Arachidonic acid” value in assay [3] was “≧1 mg/ear”. In addition, the ID₅₀ in assay [1] came to 0.16 mg/kg. In assay [2], the IC50 came to 36 nM. Further, the “ID₅₀ TPA” value in assay [4] amounted to 0.68 mg/ear.
In the case of `CCC[n+]1cc(Br)cc(C(=O)N(CCOC(=O)NCCI)c2ccccc2)c1.[I-]` [Compound 7], the “ID₅₀ Arachidonic acid” value in assay [3] worked out at 0.50 mg/ear. Further, the ID₅₀ in assay [1] is on record as under 0.025 mg/kg. The IC50 in assay [2] is 2.1 nM. In assay [4], the “ID₅₀ TPA” value is listed as 0.20 mg/ear.
Take `CCC[n+]1cc(Br)cc(C(=O)N(CCNC(=O)OCC(F)(F)C(F)(F)F)c2ccccc2)c1.[I-]` [Compound 8, 5-Bromo-3-[N-[2-(2,2,3,3,3-pentafluoropropoxy)carbonylamino]ethyl-N-phenyl]carbamoyl-1-propylpyridinium iodide]: in assay [3], the “ID₅₀ Arachidonic acid” value is on record as “≈1 mg/ear”. Further, the IC50 in assay [2] stood at 4.2 nM. In addition, in assay [4], the “ID₅₀ TPA” value is on record as 0.3-1 mg/ear.
Consider `CCC[n+]1cc(Br)cc(C(=O)N(CCNC(=O)c2ccc(C(F)(F)F)cc2)c2ccccc2)c1.[I-]` [Compound 10], for which the “ID₅₀ Arachidonic acid” value in assay [3] was “≈1 mg/ear”. Besides, the IC50 in assay [2] is 4.5 nM. Also, in assay [4], the “ID₅₀ TPA” value is recorded as 0.3-1 mg/ear.
With `CCC[n+]1cc(Br)cc(C(=O)N(CCNC(=O)c2ccc(C(F)(F)F)cc2)c2ccccc2)c1.[Cl-]` [Compound 11, 5-Bromo-3-[N-[2-[(4-trifluoromethyl)phenyl]carbonylaminolethyl-N-phenyl]carbamoyl-1-propylpyridinium chloride], in assay [2], the IC50 was found to be 23 nM.
For `CCC[n+]1cc(Br)cc(C(=O)N(CCNC(=O)c2ccc(C(F)(F)F)cc2)c2ccccc2)c1.[Cl-]` [Compound 11], the ID₅₀ in assay [1] turned out to be 0.022 mg/kg.
`Cl.O=C(Cc1ccc(OCc2ccc3ccccc3n2)cc1)NCCN(C(=O)c1cncc(Br)c1)c1ccccc1` [Compound 13, 5-Bromo-3-[N-[2-[p-(2-quinolylmethoxy)phenyl]acetylamino]ethyl-N-phenyl]carbamoylpyridinium chloride]: in assay [3], the “ID₅₀ Arachidonic acid” value is reported as over 0.3 mg/ear. In addition, the ID₅₀ in assay [1] turned out to be 0.0065 mg/kg. Moreover, the IC50 in assay [2] amounted to 52 nM. Besides, the “ID₅₀ TPA” value in assay [4] is recorded as over 0.1 mg/ear.
In the case of `Cl.O=C(NCCN(C(=O)c1cncc(Br)c1)c1ccccc1)c1cccc(OCc2ccc3ccccc3n2)c1` [Compound 15, 5-Bromo-3-[N-[2-[3-(2-quinolylmethoxy)phenyl]carbonylamino]ethyl-N-phenyl]carbamoylpyridinium chloride], in assay [4], the “ID₅₀ TPA” value is given as “≦0.1 mg/ear”.
`Cl.O=C(NCCN(C(=O)c1cncc(Br)c1)c1ccccc1)c1ccc(OCc2ccc3ccccc3n2)cc1` [Compound 17, 5-Bromo-3-[N-[2-[p-(2-quinolylmethoxy)phenyl]carbonylamino]ethyl-N-phenyl]carbamoylpyridinium chloride]: the “ID₅₀ TPA” value in assay [4] was under 0.1 mg/ear.
